A melting point compilation (Tetko et al.)
Starred links: 1 amine or outer side, 2 acyl side, 3 side chain; linkers in the order of their positions; H or OH if unused. Positions of bridges follow the written chain, without caps; N, C: chain ends. Non-standard residues stand in square brackets, D forms with d. Residues, ends and D or L forms follow the SMILES beside them. *: point of attachment. X7 = CCC(C)C(N[*:1])C(O)CC(=O)OC(C(C)C)C(O)C(C)C(=O)[*:2]; NMeY = CN[CH](Cc1ccc(O)cc1)C(=O)O; NMeL = CN[CH](CC(C)C)C(=O)O; Cbz = O=C(OCc1ccccc1)*; Boc = CC(C)(C)OC(=O)*; OBn = c1ccc(CO*)cc1; Bn = c1ccc(C*)cc1

Row | Compound | melting point [°C]
1 | C=CCOc1nc(NC(C)(C)CC(C)(C)C)nc(N(CCCCCCN(c2nc(NC(C)(C)CC(C)(C)C)nc(OCC=C)n2)C2CC(C)(C)NC(C)(C)C2)C2CC(C)(C)NC(C)(C)C2)n1 | 210 to 212
2 | O=S(=O)(OCC(I)C(F)(F)C(F)(F)C(F)(F)C(F)(F)F)OCC(I)C(F)(F)C(F)(F)C(F)(F)C(F)(F)F (stereo not given) | 45 to 48
3 | IC(I)=C(I)CCOCCC(I)=C(I)I | 43.5 to 44.5
4 | CC(C)(C)c1cc(CCC(=O)OCC(COCC(COC(=O)CCc2cc(C(C)(C)C)c(O)c(C(C)(C)C)c2)OC(=O)CCc2cc(C(C)(C)C)c(O)c(C(C)(C)C)c2)OC(=O)CCc2cc(C(C)(C)C)c(O)c(C(C)(C)C)c2)cc(C(C)(C)C)c1O (stereo not given) | 57
5 | CCCCC(CC)C(=O)Cl (stereo not given) | < -75
6 | CC(C)(C)c1cc(CCC(=O)OC2C(C)(C)C(OC(=O)CCc3cc(C(C)(C)C)c(O)c(C(C)(C)C)c3)C(C)(C)C(OC(=O)CCc3cc(C(C)(C)C)c(O)c(C(C)(C)C)c3)C2(C)C)cc(C(C)(C)C)c1O (stereo not given) | 105 to 115
7 | CCC(C)C1NC(=O)C(NC(=O)C(CC(C)C)NC)C(C)OC(=O)C(Cc2ccc(OC)cc2)N(C)C(=O)C2CCCN2C(=O)C(CC(C)C)NC(=O)C(C)C(O)C(C(C)C)OC(=O)CC1O (stereo not given) (H-[NMeL]T[X7]LP[NMeY](Me); ester 2-C; configuration not given here) | 124 to 127
8 | COc1cc(OC)c(/C=C/C(c2ccc(OC)c(NC(=O)C(F)(F)F)c2)S(=O)(=O)C(/C=C/c2c(OC)cc(OC)cc2OC)c2ccc(OC)c(NC(=O)C(F)(F)F)c2)c(OC)c1 (stereo not given) | 179 to 180
9 | CC(COC(=O)CCSCCSCCC(=O)OCC(C)(Cc1cc(C(C)(C)C)c(O)c(C(C)(C)C)c1)Cc1cc(C(C)(C)C)c(O)c(C(C)(C)C)c1)(Cc1cc(C(C)(C)C)c(O)c(C(C)(C)C)c1)Cc1cc(C(C)(C)C)c(O)c(C(C)(C)C)c1 | 156 to 161
10 | CCCCCCCCCCCCCCCCCCSc1nc(SCCCCCCCCCCCCCCCCCC)nc(-c2cc(C(C)(C)C)c(O)c(C(C)(C)C)c2)n1 | 87 to 89
11 | Cc1cc(Cc2ccc(O)c(C(c3cc(C)c(O)cc3C)c3cc(C)c(O)cc3C)c2)c(O)c(Cc2ccc(O)c(C(c3cc(C)c(O)cc3C)c3cc(C)c(O)cc3C)c2)c1 | 276
12 | [N-]=[N+]=C(C(=O)OCCN(CCOC(=O)C(=[N+]=[N-])C(=O)C1CCCCC1)CCN(CCOC(=O)C(=[N+]=[N-])C(=O)C1CCCCC1)CCOC(=O)C(=[N+]=[N-])C(=O)C1CCCCC1)C(=O)C1CCCCC1 | 112 to 114
13 | CC(C)(C)c1cc2c(c(C(C)(C)C)c1)OP(OP1Oc3c(cc(C(C)(C)C)cc3C(C)(C)C)Cc3cc(C(C)(C)C)cc(C(C)(C)C)c3O1)Oc1c(cc(C(C)(C)C)cc1C(C)(C)C)C2 | 249 to 252
14 | CC1(C)CC(C(O)CNc2nc(NCCCCCCNc3nc(NCC(O)C4CC(C)(C)NC(C)(C)C4)nc(NCC(O)C4CC(C)(C)NC(C)(C)C4)n3)nc(NCC(O)C3CC(C)(C)NC(C)(C)C3)n2)CC(C)(C)N1 (stereo not given) | 165 to 168
15 | CCCCCCCCCCCCCCCCNc1ccc(C(=O)OCC(COC(=O)c2ccc(NCCCCCCCCCCCCCCCC)cc2)OC(=O)c2ccc(NCCCCCCCCCCCCCCCC)cc2)cc1 | 117 to 118
16 | CCCCCCCCCCCCS(=O)(=O)c1c(S(=O)(=O)CCCCCCCCCCCC)c(S(=O)(=O)CCCCCCCCCCCC)c(S(=O)(=O)CCCCCCCCCCCC)c(S(=O)(=O)CCCCCCCCCCCC)c1S(=O)(=O)CCCCCCCCCCCC | 60
17 | COc1cc(OC)c(/C=C/C(c2ccc(OC)c(NC(C)C(=O)O)c2)S(=O)(=O)C(/C=C/c2c(OC)cc(OC)cc2OC)c2ccc(OC)c(NC(C)C(=O)O)c2)c(OC)c1 (stereo not given) | 176 to 180
18 | CC(=O)OCC(COC(C)=O)NC(=O)c1c(I)c(C(=O)NC(COC(C)=O)COC(C)=O)c(I)c(N2C(=O)OCC2CO)c1I (stereo not given) | 235 to 240
19 | CCCCCCCCNc1nc(NCCCCC2CC(C)(C)N(OCC(C)(C)O)C(C)(C)C2)nc(NCCCCC2CC(C)(C)N(OCC(C)(C)O)C(C)(C)C2)n1 | 68 to 86
20 | CCCCCCCCCCCCc1cc(-c2c(Cl)c(Cl)c(-c3cc(CCCCCCCCCCCC)c(Br)s3)c3nsnc23)sc1Br | 60 to 61
21 | O=P(O)(C(F)(F)C(F)(F)C(F)(F)C(F)(F)C(F)(F)C(F)(F)C(F)(C(F)(F)F)C(F)(F)F)C(F)(F)C(F)(F)C(F)(F)C(F)(F)C(F)(F)C(F)(F)C(F)(C(F)(F)F)C(F)(F)F | 170 to 172
22 | O=S(=O)(C(/C=C/c1c(F)c(F)c(F)c(F)c1F)c1c(F)c(F)c(F)c(F)c1F)C(/C=C/c1c(F)c(F)c(F)c(F)c1F)c1c(F)c(F)c(F)c(F)c1F (stereo not given) | 137 to 139
23 | Ic1cc(NC2=NCCN2)cc2[nH]cnc12 | 180 to 181
24 | CCOP(=O)(OCC)Oc1ccc([N+](=O)[O-])cc1 | 35 to 38

Next, values leading:

Row | melting point [°C] | Compound
25 | 130 to 135 | CCOC(=O)[C@@H](CCC(=O)N1c2ccccc2C[C@H]1C(=O)OCC)NC(=O)[C@H](CCCCNSc1ncccc1[N+](=O)[O-])NC(=O)OCc1ccc2c(c1)OCO2
26 | 83 to 86 | CCCCCCCCCCCCCCCCCCOc1cc(OCCCCc2ccc3cc(OCc4ccccc4)c(OCc4ccccc4)cc3c2)cc(N(CC(=O)O)CC(=O)O)c1
27 | 180 to 182 | CCC(C)C1NC(=O)C(CC(C)C)NC(=O)C2CCCN2C(=O)C(C(C)C)NC(=O)C(Cc2ccc(O)cc2)NC(=O)C2CCCN2C(=O)C2CCCN2C(=O)C(C(C)CC)NC1=O (stereo not given) (cyclo(IIPPYVPL); configuration not given here)
28 | 189 to 194 | CS(=O)(=O)c1ccc(-c2nc(C(F)(F)F)nc(N3CCN(C(=O)c4cccs4)CC3)c2-c2ccccc2)cc1
29 | 213 to 215 | COC(=O)[C@H](CC(C)C)NC(=O)CNC(=O)[C@H](Cc1ccc(O)cc1)NC(=O)[C@H](CO)NC(=O)[C@H](Cc1c[nH]c2ccccc12)NC(=O)[C@H](Cc1c[nH]cn1)NC(=O)[C@@H]1CCC(=O)N1
30 | 104 | CC(C)OCCOc1ccc(CCCOc2nn(C)cc2CC(=O)O)c(Oc2ncc(C(F)(F)F)cc2Cl)c1
31 | 238 to 239 | CN(c1cccc2cc(C3=NCC(C(=O)N4CCOCC4)S3)[nH]c12)S(=O)(=O)c1cccs1 (stereo not given)
32 | 281 to 282 | NC(=O)c1cc(-c2ccccc2)c(=O)n2c1-c1sccc1CC2
33 | 181 to 182 | O=S(=O)(C(/C=C/c1ccc(I)cc1)c1ccc(Cl)cc1Cl)C(/C=C/c1ccc(I)cc1)c1ccc(Cl)cc1Cl (stereo not given)
34 | 220 to 223 | CCCC(=O)c1c[nH]c2ccc(COC(=O)c3ccccc3)cc2c1=O
35 | 188 to 190 | CCCCCCC1(CCCCCC)c2cc(Br)ccc2-c2ccc(-c3ccc(-c4ccc5c(c4)C(CCCCCC)(CCCCCC)c4cc(Br)ccc4-5)c4snnc34)cc21
36 | 195 | CC(C)(C)OC(=O)N1CCN(c2ccc(C(=O)O)cc2)CC1
37 | 106 to 110 | COc1cc(C(=O)NC2OC(COC(C)=O)C(OC3OC(COC(C)=O)C(OC(C)=O)C(OC(C)=O)C3OC(C)=O)C(OC(C)=O)C2OC(C)=O)ccc1Cl (stereo not given)
38 | 105 | CC(C)(C)OC(=O)NC(Cc1cc(I)c(Oc2cc(I)c(OCC3CO3)c(I)c2)c(I)c1)C(=O)OCC1CO1 (stereo not given)
39 | 52 | CCCCCCCCCCCCCCOc1ccc(N(CC(=O)OCc2ccccc2)CC(=O)OCc2ccccc2)cc1OCCCCCCCCCCCCCC
40 | 238 to 241 | CSCCC(NC(=O)C(CCC(N)=O)NC(=O)OC(C)(C)C)C(=O)NC(C)C(=O)NC(C(=O)NC(CCCCNC(=O)OCc1ccccc1)C(=O)OCc1ccccc1)C(C)C (stereo not given) (Boc-QMAVK(Cbz)-OBn; configuration not given here)
41 | 55 | CN1C(=O)C(Br)=C(c2cn(C3OC(COCc4ccccc4)C(OCc4ccccc4)C(OCc4ccccc4)C3OCc3ccccc3)c3ccccc23)C1=O (stereo not given)
42 | 166 to 167 | CCCCCCCCCCCCCCCCCN1C(=O)C2=C(c3ccc(Br)s3)N(CCCCCCCCCCCCCCCCC)C(=O)C2=C1c1ccc(Br)s1

Row | melting point [°C] | Compound
43 | 218 to 220 | COc1cc(OC)c(/C=C/C(c2ccc(OC)c(NC(N)=O)c2)S(=O)(=O)C(/C=C/c2c(OC)cc(OC)cc2OC)c2ccc(OC)c(NC(N)=O)c2)c(OC)c1 (stereo not given)
44 | 118 to 121 | CCCCCCCCCCCCC=CCCC(Cl)CC1CC(=O)N(N(c2ccccc2)c2[nH]n(-c3c(Cl)cc(Cl)cc3Cl)c(=O)c2OC(=O)c2cc([N+](=O)[O-])ccc2N)C1=O (stereo not given)
45 | 91 to 93 | [C-]#[N+]CS(=O)c1ccccn1 (stereo not given)
46 | 109 to 111 | CC(C)[C@H](NC(=O)N(C)CCc1ccccn1)C(=O)N[C@@H](Cc1ccccc1)[C@H](O)[C@@H](O)[C@H](Cc1ccccc1)NC(=O)[C@@H](NC(=O)N(C)CCc1ccccn1)C(C)C
47 | 54 to 55 | CCCCCCCCCCCCCCCCCCOc1ccc(OCCCOc2ccc(OCc3ccccc3)cc2)c(C(=O)N(CC(=O)OCC)CC(=O)OCC)c1
48 | 75 to 81 | Cc1nc(-c2cncc(F)c2)sc1NC(=O)C(C)CS(C)(=O)=NC#N (stereo not given)
49 | 93 to 94 | CC(NC(=O)C(Cc1ccc(OCc2ccccc2)cc1)NC(=O)C(COCc1ccccc1)NC(=O)C(Cc1c[nH]c2ccccc12)NC(=O)OC(C)(C)C)C(=O)O (stereo not given) (Boc-WS(Bn)Y(Bn)A-OH; configuration not given here)
50 | 114 to 115 | O=C1CCc2cc(O)c(I)cc21
51 | 172 to 173 | O=c1c(CCCc2cccnc2)cc2cccnc2n1-c1cccc([N+](=O)[O-])c1
52 | 60 to 61.5 | c1ccc(C2CN3CCSC3=N2)cc1 (stereo not given)
53 | -80 | C=COC(=O)CCC
54 | 92 to 95 | CCOC(=O)N1c2cc(OC)c(OC)cc2C(=O)C(=CN)C1C (stereo not given)
55 | 56 to 57 | O=C(Oc1c(I)cc(I)c(Br)c1I)C(F)(F)C(F)(Br)C(F)(F)Br (stereo not given)
56 | 122 to 124 | CC(C)[C@H](NC(=O)N(C)Cc1csc(N)n1)C(=O)N[C@@H](Cc1ccccc1)[C@H](O)[C@@H](O)[C@H](Cc1ccccc1)NC(=O)[C@@H](NC(=O)N(C)Cc1csc(N)n1)C(C)C
57 | 133 to 134 | CC(C#N)N1CCC(c2noc3cc(F)ccc23)CC1 (stereo not given)
58 | 178 to 180 | CC(=O)OC1C(=O)C2(C)C(O)CC3OCC3(OC(C)=O)C2C(OC(=O)c2ccccc2)C2(O)CC(OC(=O)C(OC(=O)CCC(=O)O)C(NC(=O)c3ccccc3)c3ccccc3)C(C)=C1C2(C)C (stereo not given)
59 | 309 to 311 | Brc1cc(C(Br)(Br)C(Br)(Br)C(Br)(Br)c2ccccc2)c(Br)c(Br)c1Br
60 | 244 to 245 | C=C(C)C(=O)Nc1ccc2ncnc(Nc3cccc(Br)c3)c2c1
